Source: patent publication US20240358726A1, “SPECIFIC T[…] MARIJUANA DOSES FOR STRESS AND PAIN” (Yale University, priority 2021, published 2024)

Legend:
Type in all cases: in vivo, human
[1] = system: recreational marijuana users; test: Provoked pain and anxiety ratings during adapted CPT protocol; conditions: versus 40 CBD+20 THC, 100 CBD alone and 40 CBD alone; CBD alone versus CBD with low doses of THC (4:1 and 3:1)
Source text: FIGS. 3A-3B: Provoked average pain and anxiety (adjusted for baseline) ratings during adapted CPT protocol.
(§1) Sessions were completed one-week apart to allow for an adequate washout period between sessions.
(§2) The first study was directed towards assessing safety of the THC and CBD doses in healthy, recreational cannabis users. […] The novel pain provocation experimental method allowed for detection of this effect within this first safety protocol assessment.

[2] = Plasma levels of CBD and THC after acute dose (Example 1 cross-over study); conditions: over the course of 4.45 hours (285 minutes), recreational marijuana users
Experimental: FIGS. 1A-1B: Plasma levels of CBD and THC—adjusted for baseline, for each of the dose conditions over the course of […] (285 minutes).
as §1

[3] = system: recreational marijuana users; test: Wanting More Drug rating (drug craving) after acute dose; conditions: adjusted for baseline
Source text: (§3) FIGS. 2A-2D: Blood Pressure, Pulse and Wanting More Drug Rating, adjusted for Baseline.
as §1

[4] = Blood pressure and pulse after acute dose (Example 1 safety study); conditions: recreational marijuana users
Source text: as §3, §1, §2

Structure (SMILES) | reducing pain and stress responses, comparison between dose conditions [1] | plasma THC levels adjusted for baseline, relative to placebo [2] | average drug craving (want more drug), relative to placebo [3] | plasma CBD levels adjusted for baseline, relative to placebo [2] | diastolic BP adjusted for baseline, relative to placebo [4]
C=C(C)[C@@H]1CCC(C)=C[C@H]1c1c(O)cc(CCCCC)cc1O [CBD, cannabidiol] | not as effective | – | – | – | –
C=C(C)[C@@H]1CCC(C)=C[C@H]1c1c(O)cc(CCCCC)cc1O [CBD40, cannabidiol] | – | not | significantly reduced | – | –
C=C(C)[C@@H]1CCC(C)=C[C@H]1c1c(O)cc(CCCCC)cc1O [CBD100, cannabidiol] | – | not | significantly reduced | significantly increased | significantly increased
